Experimental data published in patent publication US20060025326A1, “Method for treating carrier particles and its use” (LAB Pharma Oy, priority 2002, published 2006).

Assay: Microcalorimetric study of amorphous material
Format: physicochemical
Conditions: microcalorimetric study / detected in this work

## CC(C)(C)NCC(O)c1ccc(O)c(CO)c1 (stereo not shown) [salbutamol]
  amorphous (unstable) material: some amorphous material
